{"source": "paper PMC8273887", "about": "(Journal of Medicinal Chemistry, 2021)", "key": {"[1]": {"assay": "Stability in simulated gastric fluid (SGF)", "type": "in vitro ADME, porcine", "details": "simulated gastric fluid (SGF) with pepsin, pH 1.3, 15 μL of 1 mM peptide stock in 285 μL SGF, 37 °C, samples 0 min-24 h quenched with 0.2 M Na2CO3, RP-HPLC/LC-MS peak area as % of time 0, exponential one-phase decay fit, read-out: t1/2 in SGF", "how_it_was_run": "(§1)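 Peptides incubated at 37 °C in SGF (pepsin, pH 1.3) or SIF (porcine pancreatin, pH 6.8), sampled from 0 min to 24 h. Remaining peptide quantified by RP-HPLC peak area as % of time 0, with t1/2 from one-phase exponential decay fit. Metabolites identified by LC-MS.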"}, "[2]": {"assay": "Stability in simulated intestinal fluid (SIF)", "type": "in vitro ADME", "details": "pig, simulated intestinal fluid (SIF) with porcine pancreatin, pH 6.8, 15 μL of 1 mM peptide stock in 285 μL SIF, 37 °C, samples 0 min-24 h quenched with 5% aqueous TFA, RP-HPLC/LC-MS peak area as % of time 0, exponential one-phase decay fit, read-out: t1/2 in SIF", "how_it_was_run": "as §1"}, "human erythrocytes": {"tested_on": "human erythrocytes", "assay": "Hemolysis analysis", "type": "cell-based", "details": "1 h, 37 °C, absorbance 405 nm, 0.2–25 μM final concentration, two independent experiments", "description": "Considering the therapeutic potential of TFF3, it was important to determine any cytotoxic and hemolytic effects early on to avoid problems in later stages of drug development. We therefore assessed cytotoxicity on HEK-293 cells and hemolytic effects in human erythrocytes. We treated the cells with TFF3(C^57Acm) and TFF3 homodimer and used resazurin, a blue dye that produces strong fluorescence when reduced by living cells, as the readout of the number of viable cells.[60] In the hemolytic assay, we evaluated hemoglobin release, an indicator of erythrocyte lysis, upon exposure to the peptides.\nMonomeric and homodimeric TFF3 were serially diluted twofold in 0.9% NaCl and seeded (25 μL) in a 384-well polypropylene plate (0.2–25 μM final concentration). […] The cells were counted using a Neubauer hemocytometer and then diluted to 1 × 10^8/mL in 0.9% NaCl. […] Following incubation, the plates were centrifuged at 1000g for 10 min to pellet cells and debris and then 25 μL of the supernatant was transferred into a 384-well flat-bottom PS plate and absorbance (Abs) was read at 405 nm using a Tecan M1000 Pro monochromator plate reader. Percent hemolysis was calculated using the following equation: Hemolysis (%) = (Abssample – Absnegative/Abspositive – Absnegative) × 100. […]"}}, "data": [{"smiles": "CC[C@H](C)[C@@H]1NC(=O)[C@H](CCCNC(=N)N)NC(=O)[C@H](CO)NC(=O)[C@H](CC(=O)O)NC(=O)[C@H](Cc2ccccc2)NC(=O)[C@@H]2CSSC[C@H](NC(=O)[C@H](CCC(N)=O)NC(=O)[C@H](CC(N)=O)NC(=O)[C@H](C)NC(=O)[C@H](CO)NC(=O)[C@H](CC(C)C)NC(=O)CNC(=O)[C@@H](NC(=O)[C@H](Cc3ccc(O)cc3)NC(=O)[C@H](CCC(=O)O)NC(=O)[C@@H](N)CCC(=O)O)C(C)C)C(=O)N[C@@H](C)C(=O)N[C@@H](C(C)C)C(=O)N3CCC[C@H]3C(=O)N[C@@H](C)C(=O)N[C@@H](CCCCN)C(=O)N[C@@H](CC(=O)O)C(=O)N[C@@H](CCCNC(=N)N)C(=O)N[C@@H](C(C)C)C(=O)N[C@@H](CC(=O)O)C(=O)N[C@H]3CSSC[C@H](NC(=O)CNC(=O)[C@H](CCCNC(=N)N)NC(=O)[C@H](CC(N)=O)NC(=O)[C@H](CC(N)=O)NC(=O)[C@H](CSSC[C@@H](C(=O)N[C@@H](Cc4ccccc4)C(=O)N[C@@H](CCCCN)C(=O)N4CCC[C@H]4C(=O)N[C@@H](CC(C)C)C(=O)N[C@@H](CCC(N)=O)C(=O)N[C@@H](CCC(=O)O)C(=O)N[C@@H](C)C(=O)N[C@@H](CCC(=O)O)C(=O)N[C@@H](CSCNC(C)=O)C(=O)N[C@H](C(=O)N[C@@H](Cc4ccccc4)C(=O)O)[C@@H](C)O)NC(=O)[C@H](Cc4c[nH]c5ccccc45)NC(=O)[C@@H]4CCCN4C(=O)[C@H](C(C)C)NC(=O)CNC(=O)[C@@H]4CCCN4C1=O)NC(=O)[C@H](CCC(=O)O)NC(=O)[C@H](CCCCN)NC(=O)[C@@H]1CCCN1C(=O)[C@H]([C@@H](C)O)NC(=O)[C@H](C(C)C)NC(=O)[C@H](Cc1c[nH]cn1)NC(=O)[C@@H]1CCCN1C(=O)[C@H](Cc1ccc(O)cc1)NC(=O)CNC3=O)C(=O)N2", "note": "[TFF3(C^57Acm)]", "values": [{"measurement": "half-life at 50 μM", "setting": "[1]", "value": "< 5", "unit": "min"}, {"measurement": "half-life at 50 μM", "setting": "[2]", "value": "< 5", "unit": "min"}, {"measurement": "concentration up to which no hemolytic effect was displayed", "setting": "human erythrocytes", "value": "> 25", "unit": "µM"}]}]}
